{"source": "patent US10815235B2", "about": "“Polycyclic compounds and uses thereof” (priority 2017, dated 2020)", "target": "T1, Serotonin 5-HT1F receptor (Homo sapiens, UniProt P30939)", "T1 sequence (P30939 1-366)": "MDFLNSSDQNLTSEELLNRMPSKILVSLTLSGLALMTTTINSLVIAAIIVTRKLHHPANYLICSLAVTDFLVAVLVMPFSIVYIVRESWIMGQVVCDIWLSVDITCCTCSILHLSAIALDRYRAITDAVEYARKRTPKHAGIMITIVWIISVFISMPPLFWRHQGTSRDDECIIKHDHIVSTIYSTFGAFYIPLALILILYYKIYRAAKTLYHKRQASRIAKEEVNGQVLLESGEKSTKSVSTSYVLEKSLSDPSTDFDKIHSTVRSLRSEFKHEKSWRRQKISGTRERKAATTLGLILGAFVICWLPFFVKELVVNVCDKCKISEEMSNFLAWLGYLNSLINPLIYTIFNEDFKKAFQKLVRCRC", "assay": "GTPγS Scintillation Proximity Assay, agonist and antagonist mode", "type": "biochemical", "protocol": "Antagonist and agonist activities were determined using a GTPγS Scintillation Proximity Assay. The assay was prepared as follows: Membrane extracts were prepared from recombinant human Dopamine D2L, D3; Serotonin 5-HT1A, 5-HT1B, 5-HT1D and 5-HT1F receptors.\nSamples were tested by proprietary biological assays by Ogeda S. A., Euroscreen FAST Business Unit, Rue Adrienne Bolland, 47 B-6041 Gosselies, Belgium. Each protein assay was prepared using the following conditions.\n5-HT1F • Assay buffer: 20 mM HEPES pH 7.4; 100 mM NaCl, 10 μg/ml saponin, 1 mM MgCl2; • Membranes: recombinant 5-HT1F membrane extracts thawed on ice and diluted in assay buffer to give 0.5 mg/ml (5 μg/well) and kept on ice; • GDP: diluted in assay buffer to give a 3 μM final assay concentration; • Beads: PVT-WGA (Perkin Elmer, RPNQ001), diluted in assay buffer at 50 mg/ml (0.5 mg/well); and • GTPγ^35S: (PerkinElmer NEG030X), diluted in assay buffer to give 0.1 nM.\nMembranes were mixed with GDP (volume:volume 1:1) and incubated for at least 15 min on ice. […]\nThe plates were covered with a top seal, mixed on an orbital shaker for 2 min, and then incubated for 1 hour at room temperature. Then the plates were centrifuged for 10 min at 2000 rpm, incubated at room temperature 1 hour and counted for 1 min/well with a PerkinElmer TopCount reader. […]", "note": "Read-outs that look alike come from different tables or passages of the source.", "data": [{"smiles": "CC[C@@H](CO)NC(=O)[C@@H]1C[C@@H]2c3cccc4c3c(c(C3CC3)n4C)C[C@H]2N(C)C1", "note": "[Compound D13H, (6aR,9R,10aR)-5-cyclopropyl-N—((S)-1-hydroxybutan-2-yl)-4,7-dimethyl-4,6,6a,7,8,9,10,10a-octahydroindolo[4,3-fg]quinoline-9-carboxamide]", "values": [{"measurement": "EC50", "setting": "agonist mode, bound stated, read-out: EC50 value for the Serotonin 5-HT1F receptor", "value": "< 1000", "unit": "nM"}, {"measurement": "EC50", "setting": "membrane extracts, read-out: Agonist Activity (EC50), 5-HT1F", "value": 260, "unit": "nM"}]}]}
